Results from US11925649B2, “Treatments for diabetic neuropathy” (University of Manitoba, priority 2010, dated 2024).

Experiments:
[1] = system: sensory neurons from DRG of Sprague Dawley rat; assay: Total neurite outgrowth at low concentrations of M1R antagonists (immunostaining); format: cell-based; conditions: 24 hr culture
Experimental: Sensory neurons from cervical, thoracic and lumbar DRG of an adult 3-4 month old male Sprague Dawley rat were isolated and dissociated using the method described in Example 1, and then were cultured for 24 h in serum-free and insulin-free F12 medium in the presence of modified N2 additives. […] Neurite outgrowth was then assessed after a culture period of 24 hr.
Total neurite lengths (i.e., the sum of the length of all neurites produced by an individual neuron) were assessed using an immunostaining method. […] Four images were captured per well and the replicate well frequency was set to n=6. The neuronal marker β-tubulin III (Sigma-Aldrich Canada Ltd.) was applied to formalin fixed cells. The marker was tagged with the fluorescent conjugate Alexa Fluor 488 (Invitrogen Canada Ltd.). Fluorescent images were collected using an Olympus IX71 inverted microscope with a 20×/0.45 PH1 [sequence] objective that was suitable for resolving images on plastic surfaces. […] Captured image fluorescence was thereafter converted to a grayscale 8-bit image to quantify total pixel volume. […] Total pixel volume of the neuron specific cell bodies and neurites were quantified. […] The net pixel volume was normalized against the number of neuronal cells per quantified field.

[2] = system: STZ-induced diabetic Swiss Webster mice; assay: Reversal of thermal hypoalgesia and IENF loss in STZ-induced diabetic mice, i.p.; format: in vivo, mouse; conditions: 10 mg/kg i.p. daily for 4 weeks from week 8
Experimental: Swiss Webster (outbred) mice were made diabetic with 2 injections of 90 mg/kg STZ on consecutive days. […] The mice were maintained for 8 weeks after STZ injections. Diabetic neuropathy was well-established in the mice that received STZ injections as evidenced by signs of neuropathy (thermal hypoalgesia). A cohort then received 10 mg/kg VU255035 by i.p. injection daily for 4 weeks.

[3] = system: AMP-activated protein kinase (AMPK); assay: Phosphorylation of AMPK in cultured sensory neurons (Western blot); format: cell-based, rat; conditions: 10 μM
Experimental: Samples were taken immediately (time 0) and then after 15 min, 30 min, 60 min, and 6 hr of incubation. Quantitative Western blotting was performed as following the procedure taught in Example 5. DRG homogenates of 5-10 μg of protein were resolved on a 10% SDS-PAGE gel and electroblotted onto nitrocellulose membrane. Blots were then blocked in 5% nonfat milk containing 0.05% Tween-20, rinsed in PBS (pH 7.4) and incubated with the following antibodies: (i) polyclonal anti-phospho AMPK (on Thr-172, 1:1000, Cell Signaling Technology, Danvers, MA, US), and (ii) extracellular signal-regulated kinase (T-ERK; 1:2000, Covance, Princeton, NJ, US). The blots were rinsed, incubated in Western blotting Luminol Reagent (Santa Cruz Biotechnology Inc., Santa Cruz, CA, US) and imaged using a BioRad Fluor-S image analyzer (BioRad, Hercules, CA, US).

M1R = conditions: cited from earlier work
[4] = system: M1R relative to M(2)-M(5); conditions: cited from earlier work
[5] = in vivo in mice; cited from earlier work
[6] = system: sensory neurons from DRG of non-diabetic Sprague Dawley rat; assay: Neurite outgrowth from excised neurons from a normal rat; format: cell-based; conditions: 24 hr; for neurite outgrowth rates: higher dosages 0.1 to 10.0 μM; for neurite outgrowth: lowest dosage of 0.01 μM
Description: Sensory neurons from cervical, thoracic and lumbar DRG of a 3-4 month old adult male ZDF diabetic rat (model of type 2 diabetes) were isolated and dissociated using a method based on the teachings of Fernyhough et al. (1993, Brain Res. 607:117-124), Gardiner et al. (2005, Mol. Cell Neurosci. 28:229-240), and Huang et al. (2003, Diabetes 52:2129-2136). Briefly, DRG were removed from all spinal levels, their roots trimmed, and then the cells were chemically dissociated in 0.125% collagenase (Worthington Biochemical Corp., Lakewood, NJ, USA) in F12 nutrient medium (Invitrogen Canada Inc., Burlington, ON, Canada) for 1.5 h at 37° C. The ganglia were then mechanically dissociated by treatment with 0.05% trypsin (Worthington Biochemical Corp.) in F12 nutrient medium, followed by trituration with a glass pipette. […] The neuron cells were plated onto poly-L-ornithine-laminin-coated NUNC 48-well or 96-well plastic dishes with optically clear glass bottoms in serum-free and insulin-free F12 medium in the presence of modified N2 additives (containing no insulin) at 37° C. in a 95% air/5% CO2 humidified incubator. All cultures were exposed to the following additional conditions: 10 mM D-glucose, 0.1 nM insulin, 0.3 ng/ml NGF, 1 ng/ml NT-3 and 5 ng/ml GDNF (all obtained from Sigma-Aldrich Canada Ltd.). […] Neurite outgrowth was then assessed at 24 hr as previously described by Fernyhough et al. (1993) and Gardiner et al. (2005).
Sensory neurons from cervical, thoracic and lumbar DRG of a 3-4 month old non-diabetic adult male Sprague Dawley rat were isolated and dissociated using the method described in Example 1. The excised and dissociated neuron cells were plated onto poly-L-ornithine-laminin-coated NUNC 48-well or 96-well plastic dishes with optically clear glass bottoms in serum-free and insulin-free F12 medium in the presence of modified N2 additives (containing no insulin) at 37° C. in a 95% air/5% CO2 humidified incubator. All cultures were exposed to the following additional conditions: 10 mM D-glucose, 0.1 nM insulin, 0.3 ng/ml NGF, 1 ng/ml NT-3 and 5 ng/ml GDNF (all obtained from Sigma-Aldrich Canada Ltd.). […] Neurite outgrowth was then assessed at 24 hr.

Structure (SMILES)	concentration that significantly increased total neurite outgrowth [1]	loss of IENF [2]	loss of SNP [2]	thermal hypoalgesia [2]	total AMPK levels [3]	phosphorylation of AMPK (P-AMPK) relative to total ERK ([3]; 30-60 min)	phosphorylation of AMPK (P-AMPK) relative to total ERK ([3]; by 15 min)	phosphorylation of AMPK (P-AMPK) relative to total ERK ([3]; by 6 hr)	mode of antagonism (M1R)	selectivity to M1R relative to M2, M3, M4 and M5 receptors [4]	selectivity for M1R relative to M(2)-M(5) ([4]; equilibrium radioligand binding and functional studies)	blood brain barrier penetration [5]	neurite outgrowth rates [6]	neurite outgrowth [6]
O=C(CCNS(=O)(=O)c1cccc2nsnc12)N1CCN(c2ccncc2)CC1 [VU255035, N-(3-oxo-3-(4-(pyridine-4-yl)piperazin-1-yl)propyl)-benzo[c][1,2,5]thiadiazole-4 sulfonamide]	≥ 0.03 µM	significantly reversed loss	significantly reversed loss	significant reversal back to control levels of thermal sensitivity	not affected	maintained phosphorylation	significantly raised phosphorylation of AMPK	return to baseline	competitive orthosteric antagonist of M1R	75 times	greater than 75 fold	excellent blood brain barrier penetration	–	–
CN1[C@@H]2CC[C@H]1C[C@@H](OC(=O)C(CO)c1ccccc1)C2 (stereo partly shown) [atropine]	–	–	–	–	–	–	–	–	–	–	–	–	did not further increase neurite outgrowth rates	more than tripled
Cc1scc2c1N(C(=O)CN1CCN(C)CC1)c1ccccc1NC2=O [telenzepine, Telenzepine]	–	–	–	–	–	–	–	–	–	–	–	–	tripled	more than doubled
